Measurements taken from US20230151100A1, “Method of Selecting Patients for Treatment with a Combination of an AXL Inhibitor and an Immune Checkpoint Modulator” (BERGENBIO ASA, priority 2020, published 2023).

Tests used:
KPL9-3-1 tumor cells = assay: KPL9-3-1 subcutaneous allograft tumor growth; assay type: in vivo, mouse (C57BL/6J); details: KPL9-3-1 tumors; BGB324 50 mg/kg oral gavage twice daily, anti-PD-1 10 mg/kg i.p., alone or in combination; 3 weeks
Protocol: (§1) Control group were treated with control IgG (10 mg/kg) and vehicle (50 mg/kg). Tumor growth was measured every 3 days. […] The ratio of observed cell numbers to random expectation estimated by Roie index through chi-square test. +++ (Roien, P<0.05) represents highly enriched, ++ (1.2≤Ro/e<3, P<0.05) represents enriched, + (0.8≤Ro/e<1.2, P<0.05) represents weakly enriched, − (0<Ro/e<0.8, P<0.05) represents not significant or reduced.
For subcutaneous allografts, 1×10^6 cells in 100 ul phosphate buffered saline (PBS) were injected into the right dorsal flanks of 6-8 wks old mice. For xenografts growing on humanized mice, 1.5×10^6 cells in 100 ul phosphate buffered saline (PBS) were injected into the right dorsal flanks of reconstituted humanized mice.
Tumor bearing mice were randomly assigned into treatment groups when the tumor grew to around 100-150 mm^3. For each treatment group, 5 mice were assigned. 10 mg/kg anti-PD-1 (BioXCell, Cat #BE0146) treatment was given intraperitoneally on day 0, day 4 and day 7 after innoculation. The control group was treated with 10 mg/kg rat IgG2a isotype control (BioX Cell, Cat #BE0089) at the same day of PD-1 treatment, intraperitoneally. For the tumor growth measurement experiment, mice were treated for 3 weeks. […] Tumor volumes were measured by length (a), width (b) and height (h) in every 3 days and calculated as tumor volume=abh. […]

[1] = system: Kras^G12D, p53 WT STK11^−/− mutant human A549 lung cancer cells; assay: A549 xenografts in humanized mice, tumor volume; assay type: in vivo; details: anti-PD1 10 mg/kg i.p. 3 dosages, BGB324 50 mg/kg oral gavage twice daily for 3 weeks, or both
Protocol: Human non-small cell lung cancer (NSCLC) cells Kras^G12D, p53 WT STK11^−/− mutant human A549 lung cancer cells were cultured using standard protocols.
Each animal was weighed before cell implantation. Injection of the cells was performed after anesthetizing of the mice. Kras^G12D, p53 WT STK11^−/− mutant human A549 lung cancer cells were implanted subcutaneously in humanized immune-deficient mice.
Mice were treated with either placebo, anti-PD1 therapy (10 mg/kg, intraperitoneal, 3 dosages), BGB324 (50 mg/kg, oral gavage, twice daily for 3 weeks) or a combination of both drugs.

[2] = system: TCF1^+PD-1^+ CD8^+ T cells in KPL9-3-1 tumors; assay: Tumor microenvironment analysis of KPL9-3-1 tumors (flow cytometry, IHC); assay type: in vivo, mouse (C57BL/6J)
Protocol: as §1
KPL9-3-1 allograft were implanted into mice as described above. 5 mice were assigned into each treatment group. 10 mg/kg anti-PD-1 (BioXCell, Cat #BE0146) treatment was given intraperitoneally on day 0, day 4 and day 7 after treatment. Control group of PD-1 treatment was treated with 10 mg/kg rat IgG2a isotype control (BioX Cell, Cat #BE0089) at the same day of PD-1 treatment, intraperitoneally. BGB324 were given through oral gavage twice daily, with a dose of 50 mg/kg.
For tumor growth measurement experiment, mice were treated for 3 weeks. For tumor microenvironment analysis, mice were treated for 7 days, when the tumor sizes in each treatment group are within 2-fold differences.Seven days after tumor inoculation, mice were treated with either BGB324 or anti-PD-1 alone, or in combination.

OT-1 CD8^+ T cells = assay: BMDC co-culture with OT-1 CD8^+ T cells stimulated with ovalbumin, TCF1 expression by flow cytometry; assay type: cell-based, mouse; details: co-cultures of BMDC with OT-1 CD8^+ T cells stimulated by ovalbumin
[3] = system: CD8^+ T cell clusters in KPL9-3-1 TME; assay: scRNAseq with paired TCR sequencing of CD8^+ T cell clusters in KPL9-3-1 tumors; assay type: in vivo, mouse; details: observed versus expected cell number per cluster
Protocol: The immune landscape of the tumors from each treatment group was assessed using scRNAseq of immune cells. Sequenced scRNA-seq samples were processed through Cellranger pipelines (v3.1.0). Cellranger count was used to align reads to mouse reference genome (mm10, 2020-A, from 10× Genomics) and generate single cell feature counts for single library.
For scTCR-seq data, TCR reads were aligned to reference genome and TCR annotation was performed using the 10×cellranger vdj pipeline with provided reference (cellranger-vdj-GRCm38-alts-ensemb1-4.0.0). Overall, 94% of T cells in scRNA-seq data were assigned a TCR and more than 70% had at least one full-length productive CDR3 for both TRA and TRB. The clonotype of each T cell was represented by the beta CDR3 sequences, and clone sizes ranged from 1 cell to 580 cells. Cellranger aggr were applied next to aggregate each sample library for grouped analysis with same effective sequencing depth. Seurat (3.2.1) package was used for downstream analysis.
To determine the potential lineage differentiation between those T cell populations with high TCR sharing. Monocle (version 2.0) (PMID: 24658644) was used to investigate transcriptional and developmental trajectories concerning different CD8+ or CD4+ T cell clusters. The data of raw counts together with cluster annotations were taken as input to monocle, and the default parameters were set to run data normalization and dimension reduction. Next, Monocle leaned the kinetics of gene expression by using the reversed graph embedding approach and places each cell along an inferred pseudotime trajectory. According to the assumption that the trajectory has a tree structure, functional “State” is identified based on the segment of the tree-like structure. […]
Treatment enriched cells in each cluster were calculated and compared based on the number of cells observed divided by expected number of cells in each cluster (FIG. 8D).

[4] = system: Kras^G12D, p53^−/− STK11^−/− mutant (KPL9-3) mouse lung cancer-derived cells; assay: Subcutaneous KPL9-3 tumors in immune-competent mice, tumor volume; assay type: in vivo, mouse (C57Bl/6); details: anti-PD1 10 mg/kg i.p. twice a week for two weeks, BGB324 50 mg/kg oral gavage twice daily, or both
Protocol: Kras^G12D, p53^−/− mutant (KP9-1) or Kras^G12D, p53^−/− STK11^−/− mutant (KPL9-3) mouse lung cancer-derived cell lines were prepared using standard techniques known in the art. KP9-1 or KPL9-3 cells were propagated at sub-confluence and split on a regular basis.
Each animal was weighed before cell implantation. Injection of cells was performed after anesthetizing of the mice. The cell lines discussed above were injected subcutaneously into immune-competent mice (C57Bl/6 strain).
Mice were treated with either placebo or anti-PD1 therapeutic (200 μg/mouse, intraperitoneal, twice a week for two weeks).Tumor volume was assessed using hand held callipers and mouse weight were followed.
The Kras^G12D, p53^−/− STK11^−/− mutant (KPL9-3) mouse lung cancer-derived cells described above were implanted subcutaneously in immune-competent mice (C57Bl/6 strain) using the same protocol as described above.
Mice were treated with either placebo, anti-PD1 therapeutic (10 mg/kg, intraperitoneal, twice a week for two weeks), BGB324 (50 mg/kg, oral gavage, twice daily) or a combination of both drugs. Tumor volumes were measured.

[5] = system: Bone marrow derived BMDCs; assay: BMDC co-culture with irradiated KPL9-3-1 tumor cells, IFN beta ELISA; assay type: cell-based, mouse; details: BGB324 40 nM, 24 h; supernatant ELISA; versus DMSO
Protocol: Bone marrow derived BMDCs (2×10^5) were co-cultured with […] irradiated KPL9-3-1 tumor cells (2×10^6), with or without BGB324 treatment (40 nM). After 24 h, the cell supernatant was collected for analysis. The concentration of […] was measured by VeriKine-HS Mouse IFN Beta Serum ELISA kit (PBL Assay Science, Cat #42410), or VerKine Human IFN Beta ELISA kit (PBL Assay Science, Cat #414101) in accordance with the manufacturer's instructions. The plates were visualized by adding 100 μL of TMB solution and read at 450 nm using the SPECTROstarNano (BMG LABTECH).
The cells were treated with BGB324 or DMSO.

[6] = system: TCF1^+PD-1^+ cells among CD8^+ TILs; assay: Intratumoral injection of IFNα, TCF1^+PD-1^+ CD8^+ TILs; assay type: in vivo, mouse; details: IFNα 200 ng intratumoral, 48 h
Protocol: Tumor tissues were excised and digested with 2 mg/mL Collagenase A (Sigma, Cat #SCR136) and 1 mg/ml DNase I (Roche, Cat #11284932001) under 37° C., 150 rpm shaking speed for 45 min. Digested materials then were transferred to a 70 μm cell strainer to remove clumped cells. Digested cells were washed twice with FACs buffer and ready for flow cytometry analysis.

[7] = system: non-small cell lung cancer; assay: Earlier lines of therapy of trial patients 234008 and 211105 (case history); assay type: in vivo, human

## Nc1nc(Nc2ccc3c(c2)CC[C@@H](N2CCCC2)CC3)nn1-c1cc2c(nn1)-c1ccccc1CCC2 [BGB324, 1-(6,7-dihydro-5H-benzo[6,7]cyclohepta[1,2-c]pyridazin-3-yl)-N^3-((7-(S)-pyrrolidin-1-yl)-6,7,8,9-tetrahydro-5H-benzo[7]annulene-2-yl)-1H-1,2,4-triazole-3,5-diamine]
KPL9-3-1 tumor cells
  tumor growth control: Neither single treatment resulted in tumor growth control
[1]
  tumor sensitivity to therapy (tumor volume): resistant
[2]; flow cytometry, day 7 after treatment started
  infiltration of TCF1+PD-1^+ CD8^+ T cells: increased
[2]; immunohistochemistry
  TCF1^+PD-1^+ CD8^+ T cell presence in the tumor: enhanced
  distribution of CD8+ cells relative to tumor islands: large population of CD8+ cells, but these are grouped together, excluded from the tumor islands
OT-1 CD8^+ T cells
  TCF1^+ expression on CD8^+ T cells: increased
[3]
  enrichment of clonal expanded CD8^+ T cells (unique TCRs): enriched CD8^+ T cells expressing unique TCRs (clonal expanded) significantly
  enrichment of exhaustive effector CD8^+ T cells: also enriched
  enrichment of stem like T cells: also enriched
[4]
  tumor sensitivity to therapy (tumor volume): resistant
[5]
  secretion of Interferon type 1β (IFNβ): increased

## IFNα [reference compound]
OT-1 CD8^+ T cells
  TCF1^+ expression on CD8^+ T cells: increased
[6]
  TCF1^+PD-1^+ cells among CD8^+ TILs after intratumoral injection: phenocopied

## carboplatin and paclitaxel
[7]; patient 234008
  duration of response to first-line therapy before progression: 22 months
[7]; patient 234008, before enrolling in the study
  response to first-line therapy: partial response

## pembrolizumab: anti-PD-1 antibody, immune checkpoint inhibitor
[7]; patient 211105, monotherapy after first-line progression
  duration of clinical benefit before progression: 18 months
